Assay results published in patent publication US20220081412A1, “QUINOLINYL-PYRAZINE-CARBOXAMIDE COMPOUNDS AND USES THEREOF” (The Regents of the University of Michigan, priority 2018, published 2022).
Where two headings read alike, the source gives them in different places.

Test system: MIA PaCa-2 cells
Experiment: Bru-seq analysis for nascent RNA synthesis (log2FC of genes, GSEA gene sets)
Type: cell-based, human
[1] = ACEVEDO_LIVER_CANCER_WITH_H3K27ME3_UP, C2, downregulated, 4 h
[2] = ACTWSNACTNY_UNKNOWN, TFBT, upregulated, 4 h
[3] = AP1_Q4_01, TFBT, upregulated, 4 h
[4] = BACH1_01, TFBT, upregulated, 4 h
[5] = BACH2_01, TFBT, upregulated, 4 h
[6] = BEGUM_TARGETS_OF_PAX3_FOXO1_FUSION_UP, C2, downregulated, 4 h
[7] = CCCNNNNNNAAGWT_UNKNOWN, TFBT, upregulated, 4 h
[8] = DACOSTA_UV_RESPONSE_VIA_ERCC3_COMMON_DN, C2, downregulated, 4 h
[9] = DACOSTA_UV_RESPONSE_VIA_ERCC3_XPCS_DN, C2, downregulated, 4 h
[10] = DAZARD_UV_RESPONSE_CLUSTER_G6, C2, downregulated, 4 h
[11] = DE_YY1_TARGETS_DN, C2, downregulated, 4 h
[12] = DOANE_BREAST_CANCER_CLASSES_DN, C2, downregulated, 4 h
[13] = EVI1_05, TFBT, upregulated, 4 h
[14] = GABRIELY_MIR21_TARGETS, C2, downregulated, 4 h
[15] = GATGKMRGCG_UNKNOWN, TFBT, upregulated, 4 h
[16] = GCCNNNWTAAR_UNKNOWN, TFBT, upregulated, 4 h
[17] = GGAANCGGAANY_UNKNOWN, TFBT, upregulated, 4 h
[18] = GGCNRNWCTTYS_UNKNOWN, TFBT, upregulated, 4 h
[19] = GGGYGTGNY_UNKNOWN, TFBT, upregulated, 4 h
[20] = GO_ALCOHOL_BIOSYNTHETIC_PROCESS, upregulated, 4 h
[21] = GO_ALCOHOL_METABOLIC_PROCESS, upregulated, 4 h
[22] = GO_CELLULAR_RESPONSE_TO_TOPOLOGICALLY_INCORRECT_PROTEIN, upregulated, 4 h
[23] = GO_CHROMATIN_ASSEMBLY_OR_DISASSEMBLY, upregulated, 4 h
[24] = GO_CHROMATIN_SILENCING_AT_RDNA, upregulated, 4 h
[25] = GO_CYTOSOLIC_LARGE_RIBOSOMAL_SUBUNIT, upregulated, 4 h
[26] = GO_CYTOSOLIC_RIBOSOME, upregulated, 4 h
[27] = GO_DNA_PACKAGING, upregulated, 4 h
[28] = GO_DNA_PACKAGING_COMPLEX, upregulated, 4 h
[29] = GO_HEXOSE_METABOLIC_PROCESS, upregulated, 4 h
[30] = GO_INTRINSIC_COMPONENT_OF_ENDOPLASMIC_RETICULUM_MEMBRANE, upregulated, 4 h
[31] = GO_IRE1_MEDIATED_UNFOLDED_PROTEIN_RESPONSE, upregulated, 4 h
[32] = GO_NEGATIVE_REGULATION_OF_RESPONSE_TO_OXIDATIVE_STRESS, upregulated, 4 h

SMILES: Cc1cc(NC(=O)c2cnc(N3CCNCC3)cn2)c2ncccc2c1 [J28, N-(6-methylquinolin-8-yl)-5-(piperazin-1-yl)pyrazine-2-carboxamide]
- ES: 0.474
- KEGG gene sets SYSTEMIC_LUPUS_ERYTHEMATOSUS and LYSOSOME: upregulation
- NES: 1.626
- cholesterol biosynthesis pathway (curated gene sets): enrichment
- expression of genes like INSIG1, DHCR7, MVK and FASN: Overexpression
- synthesis of PCYT2, DOLK and HIST1H3B RNAs: upregulated in a dose-dependent manner
- expression of ZNF816, IFT80, CACNG8 and GPR135 (4 h): significant decrease
- Cell Cycle, Mitotic pathway (4 h of treatment): upregulated
- log2FC (AC005614.2, downregulated noncoding gene, 4 h): −1.01
- log2FC (AC005726.2, downregulated protein-coding gene, 4 h): −0.99
- log2FC (AC006141.1, downregulated noncoding gene, 4 h): −1.18
- log2FC (AC007038.2, downregulated noncoding gene, 4 h): −1.08
- log2FC (AC007099.1, downregulated noncoding gene, 4 h): −1.04
- log2FC (AC007390.2, downregulated noncoding gene, 4 h): −1.54
- log2FC (AC007619.1, downregulated noncoding gene, 4 h): −1.30
- log2FC (AC009690.1, downregulated protein-coding gene, 4 h): −0.83
- log2FC (AC016949.1, downregulated noncoding gene, 4 h): −1.18
- log2FC (AC022335.1, downregulated protein-coding gene, 4 h): −0.86
- log2FC (AC022415.1, downregulated noncoding gene, 4 h): −1.20
- log2FC (AC040934.1, downregulated noncoding gene, 4 h): −0.97
- log2FC (AC046130.2, downregulated noncoding gene, 4 h): −1.16
- log2FC (AC091152.2, downregulated noncoding gene, 4 h): −1.18
- log2FC (AC135983.2, downregulated noncoding gene, 4 h): −1.16
- log2FC (AC244131.2, downregulated noncoding gene, 4 h): −1.22
- ES [1]: −0.444
- NES [1]: −1.897
- ES [2]: 0.432
- NES [2]: 1.640
- log2FC (ADNP-AS1, downregulated noncoding gene, 4 h): −1.07
- log2FC (AKAP5, downregulated protein-coding gene, 4 h): −0.90
- log2FC (AL596247.1, downregulated noncoding gene, 4 h): −2.37
- ES [3]: 0.371
- NES [3]: 1.550
- log2FC (AP001992.1, downregulated noncoding gene, 4 h): −1.36
- ES [4]: 0.419
- NES [4]: 1.762
- ES [5]: 0.390
- NES [5]: 1.654
- ES [6]: −0.621
- NES [6]: −2.034
- log2FC (CACNG8, downregulated protein-coding gene, 4 h): −1.10
- ES [7]: 0.409
- NES [7]: 1.550
- log2FC (CCDC190, downregulated protein-coding gene, 4 h): −0.91
- log2FC (CD274, downregulated protein-coding gene, 4 h): −0.90
- log2FC (CHML, downregulated protein-coding gene, 4 h): −0.94
- log2FC (CLEC2D, downregulated protein-coding gene, 4 h): −0.84
- ES [8]: −0.448
- NES [8]: −2.492
- ES [9]: −0.520
- NES [9]: −2.258
- ES [10]: −0.434
- NES [10]: −2.065
- ES [11]: −0.471
- NES [11]: −2.072
- ES [12]: −0.562
- NES [12]: −1.907
- ES [13]: 0.421
- NES [13]: 1.596
- log2FC (FERMT1, downregulated protein-coding gene, 4 h): −0.88
- log2FC (FP671120.1, downregulated noncoding gene, 4 h): −2.35
- ES [14]: −0.470
- NES [14]: −2.457
- ES [15]: 0.462
- NES [15]: 1.697
- ES [16]: 0.442
- NES [16]: 1.702
- log2FC (GCLM, downregulated protein-coding gene, 4 h): −0.85
- log2FC (GCNA, downregulated protein-coding gene, 4 h): −0.89
- ES [17]: 0.421
- NES [17]: 1.695
- ES [18]: 0.424
- NES [18]: 1.583
- ES [19]: 0.361
- NES [19]: 1.708
- ES [20]: 0.573
- NES [20]: 2.162
- ES [21]: 0.457
- NES [21]: 2.022
- ES [22]: 0.504
- NES [22]: 2.013
- ES [23]: 0.470
- NES [23]: 1.952
- ES [24]: 0.713
- NES [24]: 2.078
- ES [25]: 0.536
- NES [25]: 1.982
- ES [26]: 0.516
- NES [26]: 2.082
- ES [27]: 0.468
- NES [27]: 1.976
- ES [28]: 0.727
- NES [28]: 2.600
- ES [29]: 0.500
- NES [29]: 1.992
- ES [30]: 0.508
- NES [30]: 2.000
- ES [31]: 0.556
- NES [31]: 2.001
- ES [32]: 0.743
- NES [32]: 2.162
